How the values were obtained:
[1] = target: erbB2 receptor autophosphorylation (Homo sapiens, UniProt P04626); assay: p-erbB2 reduction in SK-OV-3 tumors by ELISA; format: in vivo; settings: 0.5 hr post-dosing on day 18
Experimental: (§1) SK-OV-3 cells obtained from ATCC (Rockville, Md.) were grown in McCoy's medium containing 10% fetal bovine serum and pen/strep. Exponentially growing cells were harvested and inoculated SC (5 million cells/animal) into female athymic mice. The tumor measurements and body weight changes were obtained on days 1, 3, 6, 10, 13 and 18. Tumor volume was calculated by the following formula: Tumor volume (mm^3)═(W×W)/2×L (L=length & W=width). Blood samples (˜50 μl) were isolated at 0.5, 1, 2, 4 and 8 hrs after dosing on day 18 for PK-analysis. Tumors were isolated at 0.5 hr post-dosing on day 18 for PD-analysis by ELISA.

[2] = Body weight and tolerability, BT-474 study; format: in vivo, mice; settings: PO
Experimental: Exponentially growing BT-474 cells (RPMI 1640 with 10 mM HEPES, 10% FBS, and pen/strep [Gibco]) were harvested and inoculated SC (5 million cells/animal) into female athymic mice. Trochar pieces of BT-474 tumors were then implanted into the right flank of animals. BT-474 tumor bearing mice (50-320 mm^3 in size, N=40) were randomized in 7 groups consisting 5-6 animals each. Animals were treated with vehicle (PO, BID) or the test compound (PO, QD or BID) as described in Table 4. The tumor measurements and body weight changes were obtained on days 1, 6, 11, 15 and 22. Tumor volume was calculated by the following formula: Tumor volume (mm^3)═(W×W)/2×L (L=length & W=width). Blood samples (˜50 μl) were isolated at 0.5, 1, 2, 4 and 8 hrs after dosing on day 22 for PK-analysis. Tumors were isolated at 0.5 hr post-dosing on day 22 for PD-analysis by ELISA.

[3] = test system: p-erbB2 (the phosphorylated form of erbB2 receptor); assay: p-erbB2 reduction in FRE/erbB2 tumors; format: in vivo, human
Text: An objective of the pre-clinical investigations was to determine whether the Cmax or area under the curve (AUC) of the test compound is critical for the anti-tumor efficacy. An additional goal was to establish a pharmacokinetics/pharmacodynamics (PK/PD) relationship in the FRE/erbB2 tumor model. The FRE/erbB2 is an engineered murine tumor model, which over-expresses human erbB2 with a trans-membrane mutation.

SK-OV-3 tumors = assay: SK-OV-3 xenograft tumor growth in athymic mice; format: in vivo, human; settings: for % Growth inhibition / Tumor volume Day 1 (Mean ± SE) / Tumor volume Day 18 (Mean ± SE): PO
Text: The in vivo anti-tumor activity of the compounds for use in the methods of the present invention can be determined by the amount of inhibition of tumor growth by a test compound relative to a control. The tumor growth inhibitory effects of various compounds can be measured according to the method of Corbett T. H., et al., “Tumor Induction Relationships in Development of Transplantable Cancers of the Colon in Mice for Chemotherapy Assays, with a Note on Carcinogen Structure”, Cancer Res., 35, 2434-2439 (1975) and Corbett T. H., et al., “A Mouse Colon-tumor Model for Experimental Therapy”, Cancer Chemother. Rep. (Part 2)”, 5, 169-186 (1975), with slight modifications. Tumors can be induced in the left flank of mice by subcutaneous (sc) injection of 1-5 million log phase cultured tumor cells suspended in 0.1 ml RPMI 1640 medium. After sufficient time has elapsed for the tumors to become palpable (˜100-150 mm^3 in size/5-6 mm in diameter) the test animals (athymic female mice) are treated with test compound (formulated at a concentration of 10 to 15 mg/ml in 5 Gelucire or 0.5% methyl cellulose) by the intravenous (iv) or oral (po) route of administration once or twice daily for 7 to 29 consecutive days. In order to determine an anti-tumor effect, the tumor is measured in millimeters with a Vernier caliper across two diameters and the tumor size (mm^3) is calculated using the formula: Tumor size (mm^3)=(W×W)/2×L (L=length and W=width), according to the methods of Geran, R. I., et al. “Protocols for Screening Chemical Agents and Natural Products Against Animal Tumors and Other Biological Systems”, Third Edition, Cancer Chemother. Rep., 3, 1-104 (1972). Results are expressed as percent inhibition, according to the formula: Inhibition Growth (%)=[100-{(% Growth of Treated/% Growth of Control)×100}]. The flank site of tumor implantation provides reproducible dose/response effects for a variety of chemotherapeutic agents, and the method of measurement (tumor diameter) is a reliable method for assessing tumor growth rates.
as §1, with “ELISA. The p-erbB2 reduction, tumor volume and body weight changes in control and test compound treated animals are shown below in Table 2.” for “ELISA.”

erbB2 receptor autophosphorylation, sequence (P04626 23-1255): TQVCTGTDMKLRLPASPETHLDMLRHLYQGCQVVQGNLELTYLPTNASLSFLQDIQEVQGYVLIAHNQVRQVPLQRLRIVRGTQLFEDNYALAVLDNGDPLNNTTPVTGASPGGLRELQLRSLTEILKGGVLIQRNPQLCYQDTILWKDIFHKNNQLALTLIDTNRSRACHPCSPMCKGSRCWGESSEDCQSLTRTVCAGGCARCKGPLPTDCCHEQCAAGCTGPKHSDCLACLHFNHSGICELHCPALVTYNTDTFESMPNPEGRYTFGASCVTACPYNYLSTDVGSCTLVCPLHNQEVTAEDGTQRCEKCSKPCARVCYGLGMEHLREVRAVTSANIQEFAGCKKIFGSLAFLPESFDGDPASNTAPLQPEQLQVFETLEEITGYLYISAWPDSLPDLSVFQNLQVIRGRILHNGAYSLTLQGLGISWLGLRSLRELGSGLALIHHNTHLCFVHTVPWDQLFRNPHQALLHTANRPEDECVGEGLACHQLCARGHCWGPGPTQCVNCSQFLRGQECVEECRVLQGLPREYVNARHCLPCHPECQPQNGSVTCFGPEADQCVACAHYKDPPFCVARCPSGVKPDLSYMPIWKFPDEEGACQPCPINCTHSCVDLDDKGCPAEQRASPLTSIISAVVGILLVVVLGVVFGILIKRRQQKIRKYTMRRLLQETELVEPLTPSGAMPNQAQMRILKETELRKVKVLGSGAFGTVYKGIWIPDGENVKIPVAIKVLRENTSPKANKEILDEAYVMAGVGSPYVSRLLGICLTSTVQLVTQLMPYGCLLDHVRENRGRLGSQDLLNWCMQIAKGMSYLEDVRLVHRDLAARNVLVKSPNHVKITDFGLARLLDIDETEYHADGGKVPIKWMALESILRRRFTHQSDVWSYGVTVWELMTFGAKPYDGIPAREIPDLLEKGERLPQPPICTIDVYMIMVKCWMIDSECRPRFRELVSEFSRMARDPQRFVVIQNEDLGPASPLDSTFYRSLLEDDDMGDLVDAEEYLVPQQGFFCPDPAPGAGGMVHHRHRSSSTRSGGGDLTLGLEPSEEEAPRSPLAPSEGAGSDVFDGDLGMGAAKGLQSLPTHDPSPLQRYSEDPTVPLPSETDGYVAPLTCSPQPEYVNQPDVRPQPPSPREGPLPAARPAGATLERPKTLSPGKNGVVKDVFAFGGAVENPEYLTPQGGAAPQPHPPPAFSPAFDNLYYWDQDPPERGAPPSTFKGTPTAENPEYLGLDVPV

COCC(=O)NC/C=C/c1ccc2ncnc(Nc3ccc(Oc4ccc(C)nc4)c(C)c3)c2c1 [Test Compound, E-2-Methoxy-N-(3-{4-(3-methyl-4-(6-methyl-pyridin-3-yloxy)-phenylamino)-quinazolin-6-yl}-allyl)-acetamide]
inhibition in vivo at 25 mg/kg ([1]; SK-OV-3, po, 0.5 h, PO, BID 25 mg/kg (Total Daily Dose = 50 mg/kg)): 20% | inhibition in vivo at 50 mg/kg ([1]; SK-OV-3, po, 0.5 h, PO, BID 50 mg/kg (Total Daily Dose = 100 mg/kg)): 24% | inhibition in vivo at 100 mg/kg ([1]; SK-OV-3, po, 0.5 h, PO, BID 100 mg/kg (Total Daily Dose = 200 mg/kg)): 62% | inhibition in vivo at 50 mg/kg ([1]; SK-OV-3, po, 0.5 h, PO, QD 50 mg/kg): 14% | inhibition in vivo at 100 mg/kg ([1]; SK-OV-3, po, 0.5 h, PO, QD 100 mg/kg): 75% | inhibition in vivo at 200 mg/kg ([1]; SK-OV-3, po, 0.5 h, PO, QD 200 mg/kg): 90% | reduction of erbB2 receptor autophosphorylation ([1]; span over 50 mg/kg QD and 25 mg/kg BID): 14-20% | average body weight Day 1 ([2]; BID 50 mg/kg): 24 g | average body weight Day 1 ([2]; BID, 15 mg/kg): 24 g | average body weight Day 22 ([2]; BID, 15 mg/kg): 29 g | average body weight Day 1 ([2]; BID, 30 mg/kg): 26 g | average body weight Day 22 ([2]; BID, 30 mg/kg): 30 g | average body weight Day 22 ([2]; BID, 50 mg/kg): 28 g | average body weight Day 1 ([2]; QD 50 mg/kg): 25 g | average body weight Day 1 ([2]; QD, 15 mg/kg): 25 g | average body weight Day 22 ([2]; QD, 15 mg/kg): 29 g | average body weight Day 1 ([2]; QD, 30 mg/kg): 23 g | average body weight Day 22 ([2]; QD, 30 mg/kg): 27 g | average body weight Day 22 ([2]; QD, 50 mg/kg): 29 g | tolerability, body weight loss or animal mortality ([2]; QD or BID, 22 days): well tolerated and there was no body weight loss or animal mortality | % p-erbB2 reduction ([3]; 1.4 mg/kg IV, QD, 15 min/day): 48% | % p-erbB2 reduction ([3]; 10.7 mg/kg IV, 4 hr/day): 53% | % p-erbB2 reduction ([3]; 25 mg/kg PO, QD, termination of 7 day study): 34% | p-erbB2 reduction ([3]; span over the IV groups 15 min/day and 4 hr/day): 48-53% | tumor growth inhibition, 100 mg/kg BID relative to 200 mg/kg QD (SK-OV-3 tumors; 18 days): 2 fold | % Growth inhibition (SK-OV-3 tumors; BID 25 mg/kg (Total Daily Dose = 50 mg/kg), 18 days): 29% | % Growth inhibition (SK-OV-3 tumors; BID 25 mg/kg (Total Daily Dose = 50 mg/kg), 18 days, listed as test compound): Approximately 29% | Tumor volume Day 1 (Mean ± SE) (SK-OV-3 tumors; BID 25 mg/kg): 93 ± 12 mm^3 | Tumor volume Day 18 (Mean ± SE) (SK-OV-3 tumors; BID 25 mg/kg): 281 ± 42 mm^3 | % Growth inhibition (SK-OV-3 tumors; BID 50 mg/kg (Total Daily Dose = 100 mg/kg), 18 days): 45% | Tumor volume Day 1 (Mean ± SE) (SK-OV-3 tumors; BID 50 mg/kg): 94 ± 13 mm^3 | Tumor volume Day 18 (Mean ± SE) (SK-OV-3 tumors; BID 50 mg/kg): 218 ± 38 mm^3 | % Growth inhibition (SK-OV-3 tumors; BID 100 mg/kg (Total Daily Dose = 200 mg/kg), 18 days): 71% | Tumor volume Day 1 (Mean ± SE) (SK-OV-3 tumors; BID 100 mg/kg): 94 ± 13 mm^3 | Tumor volume Day 18 (Mean ± SE) (SK-OV-3 tumors; BID 100 mg/kg): 115 ± 24 mm^3 | % Growth inhibition (SK-OV-3 tumors; QD 50 mg/kg, 18 days): 2% | % Growth inhibition (SK-OV-3 tumors; QD 50 mg/kg, 18 days, listed as test compound): non-efficacious | Tumor volume Day 1 (Mean ± SE) (SK-OV-3 tumors; QD 50 mg/kg): 98 ± 14 mm^3 | Tumor volume Day 18 (Mean ± SE) (SK-OV-3 tumors; QD 50 mg/kg): 390 ± 38 mm^3 | % Growth inhibition (SK-OV-3 tumors; QD 100 mg/kg, 18 days): 23% | Tumor volume Day 1 (Mean ± SE) (SK-OV-3 tumors; QD 100 mg/kg): 97 ± 14 mm^3 | Tumor volume Day 18 (Mean ± SE) (SK-OV-3 tumors; QD 100 mg/kg): 306 ± 36 mm^3 | % Growth inhibition (SK-OV-3 tumors; QD 200 mg/kg, 18 days): 36% | Tumor volume Day 1 (Mean ± SE) (SK-OV-3 tumors; QD 200 mg/kg): 98 ± 14 mm^3 | Tumor volume Day 18 (Mean ± SE) (SK-OV-3 tumors; QD 200 mg/kg): 254 ± 39 mm^3
